In the NIST ThermoML archive (doi:10.1016/j.tca.2013.08.031):
Numbers after ± are expanded uncertainties.

Test: molar heat capacity at constant volume
Details: Fluid (supercritical or subcritical phases), Vacuum adiabatic calorimetry

With `CCC(C)O` (stereo not given) [butan-2-ol] the “molar heat capacity at constant volume” value (527.47 K, Mass density=142.27 kg/m3) was 538.57 ± 5.6 J/K/mol, the “molar heat capacity at constant volume” value (527.66 K, Mass density=142.27 kg/m3) was 541.75 ± 6.4 J/K/mol and the “molar heat capacity at constant volume” value (527.84 K, Mass density=142.27 kg/m3) was 547.68 ± 6.2 J/K/mol. For the same compound, the “molar heat capacity at constant volume” value (527.89 K, Mass density=142.27 kg/m3) was 524.19 ± 5.9 J/K/mol, the “molar heat capacity at constant volume” value (527.91 K, Mass density=142.27 kg/m3) was 561.92 ± 6.2 J/K/mol and the “molar heat capacity at constant volume” value (527.93 K, Mass density=142.27 kg/m3) was 439.91 ± 5.1 J/K/mol. The “molar heat capacity at constant volume” value (527.95 K, Mass density=142.27 kg/m3) was 388.84 ± 4.7 J/K/mol, the “molar heat capacity at constant volume” value (527.97 K, Mass density=142.27 kg/m3) was 388.92 ± 4.7 J/K/mol and the “molar heat capacity at constant volume” value (527.99 K, Mass density=142.27 kg/m3) was 375.57 ± 4.6 J/K/mol. For the same compound, the “molar heat capacity at constant volume” value (528.01 K, Mass density=142.27 kg/m3) was 386.62 ± 4.8 J/K/mol, the “molar heat capacity at constant volume” value (528.02 K, Mass density=142.27 kg/m3) was 388.84 ± 4.8 J/K/mol and the “molar heat capacity at constant volume” value (528.02 K, Mass density=403.55 kg/m3) was 319.46 ± 3 J/K/mol. For the same compound, the “molar heat capacity at constant volume” value (528.21 K, Mass density=142.27 kg/m3) was 337.77 ± 4.7 J/K/mol, the “molar heat capacity at constant volume” value (528.21 K, Mass density=403.55 kg/m3) was 320.21 ± 3 J/K/mol and the “molar heat capacity at constant volume” value (528.39 K, Mass density=403.55 kg/m3) was 321.69 ± 3 J/K/mol. For the same compound, the “molar heat capacity at constant volume” value (528.58 K, Mass density=403.55 kg/m3) was 321.69 ± 3 J/K/mol, the “molar heat capacity at constant volume” value (528.76 K, Mass density=403.55 kg/m3) was 324.65 ± 3 J/K/mol and the “molar heat capacity at constant volume” value (528.95 K, Mass density=142.27 kg/m3) was 295.37 ± 3 J/K/mol. For the same compound, the “molar heat capacity at constant volume” value (528.95 K, Mass density=403.55 kg/m3) was 322.43 ± 3 J/K/mol, the “molar heat capacity at constant volume” value (529.13 K, Mass density=142.27 kg/m3) was 274.69 ± 2.8 J/K/mol and the “molar heat capacity at constant volume” value (529.13 K, Mass density=403.55 kg/m3) was 326.14 ± 3 J/K/mol. The “molar heat capacity at constant volume” value (529.31 K, Mass density=142.27 kg/m3) was 275.36 ± 2.9 J/K/mol, the “molar heat capacity at constant volume” value (529.31 K, Mass density=403.55 kg/m3) was 306.86 ± 3 J/K/mol and the “molar heat capacity at constant volume” value (529.5 K, Mass density=403.55 kg/m3) was 232 ± 2.2 J/K/mol. The “molar heat capacity at constant volume” value (529.68 K, Mass density=403.55 kg/m3) was 229.78 ± 2.2 J/K/mol, the “molar heat capacity at constant volume” value (529.87 K, Mass density=403.55 kg/m3) was 227.55 ± 2.2 J/K/mol and the “molar heat capacity at constant volume” value (530.05 K, Mass density=142.27 kg/m3) was 274.1 ± 2.7 J/K/mol. The “molar heat capacity at constant volume” value (530.23 K, Mass density=142.27 kg/m3) was 282.55 ± 2.8 J/K/mol, the “molar heat capacity at constant volume” value (530.23 K, Mass density=403.55 kg/m3) was 227.55 ± 2.2 J/K/mol and the “molar heat capacity at constant volume” value (530.42 K, Mass density=142.27 kg/m3) was 282.33 ± 2.8 J/K/mol. The “molar heat capacity at constant volume” value (530.42 K, Mass density=403.55 kg/m3) was 228.29 ± 2.2 J/K/mol, the “molar heat capacity at constant volume” value (530.6 K, Mass density=403.55 kg/m3) was 232 ± 2.2 J/K/mol and the “molar heat capacity at constant volume” value (530.79 K, Mass density=184.89 kg/m3) was 471.41 ± 4.8 J/K/mol. For the same compound, the “molar heat capacity at constant volume” value (530.79 K, Mass density=403.55 kg/m3) was 229.78 ± 2.2 J/K/mol, the “molar heat capacity at constant volume” value (530.97 K, Mass density=184.89 kg/m3) was 466.37 ± 4.7 J/K/mol and the “molar heat capacity at constant volume” value (530.97 K, Mass density=403.55 kg/m3) was 232 ± 2.2 J/K/mol. For the same compound, the “molar heat capacity at constant volume” value (531.15 K, Mass density=184.89 kg/m3) was 474.16 ± 4.8 J/K/mol, the “molar heat capacity at constant volume” value (531.15 K, Mass density=347.06 kg/m3) was 363.2 ± 3.7 J/K/mol and the “molar heat capacity at constant volume” value (531.15 K, Mass density=403.55 kg/m3) was 229.78 ± 2.2 J/K/mol. The “molar heat capacity at constant volume” value (531.34 K, Mass density=184.89 kg/m3) was 489.72 ± 5 J/K/mol, the “molar heat capacity at constant volume” value (531.34 K, Mass density=347.06 kg/m3) was 356.52 ± 3.7 J/K/mol and the “molar heat capacity at constant volume” value (531.34 K, Mass density=403.55 kg/m3) was 233.48 ± 2.2 J/K/mol. For the same compound, the “molar heat capacity at constant volume” value (531.52 K, Mass density=184.89 kg/m3) was 492.32 ± 5 J/K/mol, the “molar heat capacity at constant volume” value (531.52 K, Mass density=347.06 kg/m3) was 358.01 ± 3.7 J/K/mol and the “molar heat capacity at constant volume” value (531.52 K, Mass density=403.55 kg/m3) was 233.48 ± 2.2 J/K/mol. For the same compound, the “molar heat capacity at constant volume” value (531.7 K, Mass density=184.89 kg/m3) was 488.16 ± 4.9 J/K/mol, the “molar heat capacity at constant volume” value (531.7 K, Mass density=284.93 kg/m3) was 365.79 ± 3.7 J/K/mol and the “molar heat capacity at constant volume” value (531.7 K, Mass density=301.19 kg/m3) was 380.99 ± 3.7 J/K/mol. The “molar heat capacity at constant volume” value (531.7 K, Mass density=347.06 kg/m3) was 360.23 ± 3.7 J/K/mol, the “molar heat capacity at constant volume” value (531.7 K, Mass density=403.55 kg/m3) was 237.19 ± 2.2 J/K/mol and the “molar heat capacity at constant volume” value (531.89 K, Mass density=184.89 kg/m3) was 479.34 ± 4.8 J/K/mol. The “molar heat capacity at constant volume” value (531.89 K, Mass density=284.93 kg/m3) was 377.35 ± 3.9 J/K/mol, the “molar heat capacity at constant volume” value (531.89 K, Mass density=301.19 kg/m3) was 380.99 ± 3.7 J/K/mol and the “molar heat capacity at constant volume” value (531.89 K, Mass density=347.06 kg/m3) was 364.68 ± 3.7 J/K/mol. For the same compound, the “molar heat capacity at constant volume” value (531.89 K, Mass density=403.55 kg/m3) was 239.41 ± 2.2 J/K/mol, the “molar heat capacity at constant volume” value (532.07 K, Mass density=184.89 kg/m3) was 478.97 ± 4.8 J/K/mol and the “molar heat capacity at constant volume” value (532.07 K, Mass density=245.67 kg/m3) was 434.57 ± 4.4 J/K/mol. The “molar heat capacity at constant volume” value (532.07 K, Mass density=284.93 kg/m3) was 387.43 ± 3.9 J/K/mol, the “molar heat capacity at constant volume” value (532.07 K, Mass density=347.06 kg/m3) was 363.94 ± 3.7 J/K/mol and the “molar heat capacity at constant volume” value (532.07 K, Mass density=403.55 kg/m3) was 238.67 ± 2.2 J/K/mol. For the same compound, the “molar heat capacity at constant volume” value (532.26 K, Mass density=184.89 kg/m3) was 490.54 ± 5 J/K/mol, the “molar heat capacity at constant volume” value (532.26 K, Mass density=245.67 kg/m3) was 439.02 ± 4.4 J/K/mol and the “molar heat capacity at constant volume” value (532.26 K, Mass density=286.65 kg/m3) was 404.56 ± 4.1 J/K/mol. The “molar heat capacity at constant volume” value (532.26 K, Mass density=301.19 kg/m3) was 388.4 ± 3.7 J/K/mol, the “molar heat capacity at constant volume” value (532.26 K, Mass density=347.06 kg/m3) was 364.68 ± 3.7 J/K/mol and the “molar heat capacity at constant volume” value (532.26 K, Mass density=403.55 kg/m3) was 236.45 ± 2.2 J/K/mol. For the same compound, the “molar heat capacity at constant volume” value (532.44 K, Mass density=245.67 kg/m3) was 433.61 ± 4.4 J/K/mol, the “molar heat capacity at constant volume” value (532.44 K, Mass density=286.65 kg/m3) was 410.63 ± 4.2 J/K/mol and the “molar heat capacity at constant volume” value (532.44 K, Mass density=301.19 kg/m3) was 386.17 ± 3.7 J/K/mol. For the same compound, the “molar heat capacity at constant volume” value (532.44 K, Mass density=347.06 kg/m3) was 361.71 ± 3.7 J/K/mol, the “molar heat capacity at constant volume” value (532.62 K, Mass density=184.89 kg/m3) was 485.64 ± 5 J/K/mol and the “molar heat capacity at constant volume” value (532.62 K, Mass density=198.25 kg/m3) was 477.94 ± 4.8 J/K/mol. The “molar heat capacity at constant volume” value (532.62 K, Mass density=245.67 kg/m3) was 439.84 ± 4.4 J/K/mol, the “molar heat capacity at constant volume” value (532.62 K, Mass density=286.65 kg/m3) was 417.75 ± 4.2 J/K/mol and the “molar heat capacity at constant volume” value (532.62 K, Mass density=301.19 kg/m3) was 388.4 ± 3.7 J/K/mol. The “molar heat capacity at constant volume” value (532.62 K, Mass density=347.06 kg/m3) was 361.71 ± 3.7 J/K/mol, the “molar heat capacity at constant volume” value (532.62 K, Mass density=403.55 kg/m3) was 232 ± 2.2 J/K/mol and the “molar heat capacity at constant volume” value (532.81 K, Mass density=184.89 kg/m3) was 501.51 ± 5.1 J/K/mol. The “molar heat capacity at constant volume” value (532.81 K, Mass density=198.25 kg/m3) was 476.53 ± 4.8 J/K/mol, the “molar heat capacity at constant volume” value (532.81 K, Mass density=245.67 kg/m3) was 441.76 ± 4.4 J/K/mol and the “molar heat capacity at constant volume” value (532.81 K, Mass density=286.65 kg/m3) was 423.83 ± 4.3 J/K/mol. The “molar heat capacity at constant volume” value (532.81 K, Mass density=301.19 kg/m3) was 385.43 ± 3.7 J/K/mol, the “molar heat capacity at constant volume” value (532.81 K, Mass density=347.06 kg/m3) was 364.68 ± 3.7 J/K/mol and the “molar heat capacity at constant volume” value (532.81 K, Mass density=403.55 kg/m3) was 231.26 ± 2.2 J/K/mol. For the same compound, the “molar heat capacity at constant volume” value (532.81 K, Mass density=474.07 kg/m3) was 191.23 ± 2.2 J/K/mol, the “molar heat capacity at constant volume” value (532.99 K, Mass density=184.89 kg/m3) was 501.8 ± 5.6 J/K/mol and the “molar heat capacity at constant volume” value (532.99 K, Mass density=198.25 kg/m3) was 476.23 ± 4.8 J/K/mol. For the same compound, the “molar heat capacity at constant volume” value (532.99 K, Mass density=245.67 kg/m3) was 435.17 ± 4.4 J/K/mol, the “molar heat capacity at constant volume” value (532.99 K, Mass density=286.65 kg/m3) was 421.6 ± 4.2 J/K/mol and the “molar heat capacity at constant volume” value (532.99 K, Mass density=301.19 kg/m3) was 390.62 ± 3.7 J/K/mol. The “molar heat capacity at constant volume” value (532.99 K, Mass density=347.06 kg/m3) was 370.61 ± 3.7 J/K/mol, the “molar heat capacity at constant volume” value (532.99 K, Mass density=474.07 kg/m3) was 191.23 ± 2.2 J/K/mol and the “molar heat capacity at constant volume” value (533.17 K, Mass density=184.89 kg/m3) was 502.32 ± 5.6 J/K/mol. For the same compound, the “molar heat capacity at constant volume” value (533.17 K, Mass density=198.25 kg/m3) was 482.38 ± 4.9 J/K/mol, the “molar heat capacity at constant volume” value (533.17 K, Mass density=245.67 kg/m3) was 443.91 ± 4.4 J/K/mol and the “molar heat capacity at constant volume” value (533.17 K, Mass density=284.93 kg/m3) was 404.04 ± 4.1 J/K/mol. The “molar heat capacity at constant volume” value (533.17 K, Mass density=286.65 kg/m3) was 417.75 ± 4.2 J/K/mol, the “molar heat capacity at constant volume” value (533.17 K, Mass density=301.19 kg/m3) was 393.59 ± 3.7 J/K/mol and the “molar heat capacity at constant volume” value (533.17 K, Mass density=347.06 kg/m3) was 373.57 ± 3.7 J/K/mol. The “molar heat capacity at constant volume” value (533.17 K, Mass density=474.07 kg/m3) was 197.16 ± 2.2 J/K/mol, the “molar heat capacity at constant volume” value (533.36 K, Mass density=184.89 kg/m3) was 511.07 ± 5.6 J/K/mol and the “molar heat capacity at constant volume” value (533.36 K, Mass density=198.25 kg/m3) was 490.83 ± 5 J/K/mol. For the same compound, the “molar heat capacity at constant volume” value (533.36 K, Mass density=245.67 kg/m3) was 447.32 ± 4.5 J/K/mol, the “molar heat capacity at constant volume” value (533.36 K, Mass density=284.93 kg/m3) was 410.71 ± 4.2 J/K/mol and the “molar heat capacity at constant volume” value (533.36 K, Mass density=286.65 kg/m3) was 416.27 ± 4.2 J/K/mol.
